Source: patent US20240415801A1, “Methods and Compositions for Treating Fibroids” (Lundquist Institute for Biomedical Innovation at …, priority 2023, published 2024)

Experiments:
[1] = tested on: leiomyoma smooth muscle cells (LSMC); assay: 3D spheroid culture of leiomyoma smooth muscle cells, qRT-PCR (Example 2); type: cell-based, human; details: 3D cultured LSMC, 5 μM, 24 h
Description: Leiomyoma smooth muscle cells (LSMC) were cultured in DMEM supplemented with 10% fetal bovine serum until reaching confluence with a change of media every 2-3 days. Cells at passages p1 to p3 were used for all experiments. Isolated LSMC were plated in 6-well plates (1.5×10^5 cells/well) which were coated with 0.5% agarose gel and incubated 48 hours for spheroid formation with size ranging from 50 μm to 250 μm in diameter (1). For blocking IκBα phosphorylation and nuclear translocation of NFκB, LSMC spheroids were treated with 5 μM of Bay 11-7082 (Cayman Chemical, Ann Arbor, Michigan) for 24 hours. […]
Total RNA was extracted from the xenografts using TRIzol (Thermo Fisher Scientific Inc., Waltham, MA). RNA concentration and integrity was determined using a Nanodrop 2000c spectrophotometer (Thermo Scientific, Wilmington, DE) and Agilent 2100 Bioanalyzer (Agilent Technologies, Santa Clara, CA) as previously described (7, 8). […] Quantitative RT-PCR was carried out using SYBR gene expression master mix (Applied Biosystems). […] The expression levels of selected genes were quantified using Invitrogen StepOne System with FBXW2 (F-box and WD repeat domain containing 2) used for normalization (9). All reactions were run in triplicate and relative mRNA expression was determined using the comparative cycle threshold method (2−ΔΔCq), as recommended by the supplier (Applied Biosystems). […]

[2] = tested on: fibroid xenografts; assay: Immunoblotting of fibroid xenografts (Example 1); type: in vivo, SCID/Beige mice; details: 20 mg/kg daily, 8 weeks
From the text: Protein extracted from the xenografts underwent immunoblotting as previously described. Primary antibodies targeting COL3A1, FN1, SPARC, TDO2, and Cleaved Caspase 3 were purchased from Proteintech Group, Inc. (Chicago, IL, USA). Band densities of specific proteins were quantified using the Image J program (http://imagej.nih.gov/ij/), and normalized to a Ponceau S staining band on the membrane. Results were expressed as means±SEM, and are presented as ratios relative to the control group, designated as 1.

[3] = tested on: human fibroid explants; assay: Fibroid explant culture, qRT-PCR; type: cell-based; details: 5 μM, 48 hours
Description: Quantitative RT-PCR was performed as previously described. Selected gene expression levels were assessed utilizing the Invitrogen StepOne System, with normalization against 18S. Triplicate reactions were conducted, and relative mRNA expression was calculated using the comparative cycle threshold method (2−ΔΔCt), with results presented as fold change relative to the control group. The primer sequences used are shown in the following Sequence Table:
Equal weights of fibroid explants, aseptically cut from the same patient, were plated in 6-well plates containing complete medium. They were then incubated for 48 hours with either vehicle or Bay (5 μM).

[4] = Safety test, plasma chemistry panel (Example 2); type: in vivo, SCID/Beige mice; details: 5 mg/kg i.p.
Description: In order to determine if Bay 11-7082 administration was safe, the plasma collected from the mice was tested after 8 weeks of treatment with vehicle or Bay 11-7082. The plasma (100 μL) was pipetted into the Comprehensive Diagnostic Profile Rotor (#500-1038, Abaxis, Union City, CA, USA) and the values of glucose, creatinine, BUN, phosphorus, sodium, albumin, alkaline phosphatase, serum glutamic pyruvic transaminase (SGPT; ALT), total protein, globulin, total bilirubin and amylase were analyzed using VetScan VS2 chemistry analyzer (Abaxis, Union City, CA, USA).

SMILES: Cc1ccc(S(=O)(=O)/C=C/C#N)cc1 [Bay 11-7082]
- expression of IL8, TGFB3, Col3A1, CDK2, CCND1, DNMT1 and DNMT3A [1]: significant decrease
- protein abundance of COL3A1, FN1, SPARC, TDO2 (Western blot) [2]: inhibited
- mRNA levels of TLR3, TLR6, MyD88, TNFα, ESR1, HTR1B, TNFRSF11A [3]: without significant effects
- mRNA levels of VEGFC, TDO2, TGFB3, LOX, E2F1, PRL, PGR, CKS2, SPARC, COL3A1, FN1, CCND1, IL8, IL6, IL1β [3]: significant inhibition
- expression of miR-29c and miR-200c ([3]; fibroid explants): significant increase
- adverse effects in blood plasma chemistry panel (glucose, kidney function, electrolytes, liver function, pancreatic amylase) ([4]; 8 weeks): no adverse effects
- Albumin (mean ± SEM) ([4]; plasma after 8 weeks): 3.5 ± 0.14 g/dL
- Alkaline phosphatase (mean ± SEM) ([4]; plasma after 8 weeks): 91.9 ± 20.05 U/l
- Amylase (mean ± SEM) ([4]; plasma after 8 weeks): 643.0 ± 36.82 U/l
- BUN (mean ± SEM) ([4]; plasma after 8 weeks): 27.1 ± 5.75 mg/dL
- Creatinine (mean ± SEM) ([4]; plasma after 8 weeks): 0.4 ± 0.03 mg/dL
- Globulin (mean ± SEM) ([4]; plasma after 8 weeks): 1.1 ± 0.24 g/dL
- Glucose (mean ± SEM) ([4]; plasma after 8 weeks): 261.0 ± 14.63 mg/dL
- Phosphorus (mean ± SEM) ([4]; plasma after 8 weeks): 10.1 ± 0.53 mg/dL
- SGPT (ALT) (mean ± SEM) ([4]; plasma after 8 weeks): 54.5 ± 8.71 U/l
- Sodium (mean ± SEM) ([4]; plasma after 8 weeks): 155.3 ± 1.35 mEq/l
- Total bilirubin (mean ± SEM) ([4]; plasma after 8 weeks): 0.3 ± 0.04 mg/dL
- Total protein (mean ± SEM) ([4]; plasma after 8 weeks): 4.6 ± 0.16 g/dL
